Key:
Type in all cases: in vivo
[1] = test system: winter barley (Hordeum vulgare); test: Test B postemergence plant response; conditions: for Barley plant response rating (0 to 100 scale): 0 is no effect
Method in brief: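 Plants at the 1- to 4-leaf stage (2 to 18 cm tall), grown in pots of peat moss/vermiculite medium with wetting agent and starter nutrients, received postemergence applications of test chemicals. After 13 to 15 days in a greenhouse, injury was rated visually against untreated controls on a 0 (no effect) to 100 (complete control) scale.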

[2] = test system: large crabgrass (Digitaria sanguinalis); test: Test A pre-/postemergence plant response
Method in brief: (§1)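 Pre: directed soil spray on seeded loam/sand blend. Post: same formulation (non-phytotoxic solvent + surfactant) on 2–10 cm plants, 1–2 leaf stage. Greenhouse ~10 d; visual injury score 0–100 vs untreated.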

[3] = test system: morningglory (Ipomoea spp.); test: Test A pre-/postemergence plant response
Method in brief: as §1

[4] = test system: pigweed (Amaranthus retroflexus); test: Test A pre-/postemergence plant response
Method in brief: as §1

[5] = test system: wheat (Triticum aestivum); test: Test A pre-/postemergence plant response
Method in brief: as §1

[6] = test system: corn (Zea mays); test: Test A pre-/postemergence plant response
Method in brief: as §1

[7] = test system: giant foxtail (Setaria faberii); test: Test A pre-/postemergence plant response
Method in brief: as §1

[8] = test system: barnyardgrass (Echinochloa crus-galli); test: Test A pre-/postemergence plant response
Method in brief: as §1

[9] = test system: velvetleaf (Abutilon theophrasti); test: Test A pre-/postemergence plant response
Method in brief: as §1

[10] = test system: rice (Oryza sativa); test: Test B flooded paddy test; conditions: for Plant response rating, Flood, Rice: 250 g ai/ha, flooded paddy test, visual rating on 0 to 100 scale (0 no effect, 100 complete control) after 13 to 15 days; for Plant response rating, Rice: Flood (flooded paddy test), 13 to 15 days; for Rice plant response rating: Flood, 31 g ai/ha, scale 0 to 100 (0 no effect, 100 complete control)
Method in brief: (§2)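 Visual scores run from 0 (no effect) to 100 (complete control), assigned by comparison with controls 13 to 15 days after treatment. Test compounds went straight into water standing 3 cm above the soil, around plants at the 2-leaf stage kept in a greenhouse.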

[11] = test system: ducksalad (Heteranthera limosa); test: Test B flooded paddy test; conditions: for Plant response rating, Flood, Ducksalad: 250 g ai/ha, flooded paddy test, visual rating on 0 to 100 scale (0 no effect, 100 complete control) after 13 to 15 days; for Plant response rating, Ducksalad: Flood (flooded paddy test), 13 to 15 days; for Ducksalad plant response rating: Flood, 31 g ai/ha, scale 0 to 100 (0 no effect, 100 complete control)
Method in brief: as §2

[12] = test system: umbrella sedge (Cyperus difformis); test: Test B flooded paddy test; conditions: for Plant response rating, Flood, Sedge, Umbrella: 250 g ai/ha, flooded paddy test, visual rating on 0 to 100 scale (0 no effect, 100 complete control) after 13 to 15 days; for Plant response rating, Sedge, Umbrella: Flood (flooded paddy test), 13 to 15 days; for Sedge, Umbrella plant response rating: Flood, 31 g ai/ha, scale 0 to 100 (0 no effect, 100 complete control)
Method in brief: as §2

[13] = test system: barnyardgrass (Echinochloa crus-galli); test: Test B flooded paddy test; conditions: for Plant response rating, Flood, Barnyardgrass: 250 g ai/ha, flooded paddy test, visual rating on 0 to 100 scale (0 no effect, 100 complete control) after 13 to 15 days; for Plant response rating, Barnyardgrass: Flood (flooded paddy test), 13 to 15 days; for Barnyardgrass plant response rating: Flood, 31 g ai/ha, scale 0 to 100 (0 no effect, 100 complete control)
Method in brief: as §2

[14] = 62 g ai/ha, postemergence, 100 is complete control, 13 to 15 days
[15] = Postemergence, 125 g ai/ha, scale 0 to 100 (0 no effect, 100 complete control)
[16] = Postemergence, 125 g ai/ha, 0 to 100 scale where 0 is no effect and 100 is complete control
[17] = Postemergence, 500 g ai/ha, 0 to 100 scale, 0 = no effect, 100 = complete control, approx. ten days
[18] = Preemergence, 125 g ai/ha, 0 to 100 scale, 0 = no effect, 100 = complete control
[19] = Preemergence, 500 g ai/ha, visual injury, 0 to 100 scale (0 no effect, 100 complete control), approx. ten days
[20] = 62 g ai/ha, scale of 0 to 100 where 0 is no effect and 100 is complete control
[21] = 125 g ai/ha, scale 0 to 100, 0 is no effect, 100 is complete control
[22] = Postemergence, 125 g ai/ha, visual injury, 0 to 100 scale (0 no effect, 100 complete control), approx. ten days

CCCn1c(-c2cccc(F)c2)ncc(C(=O)C2=C(O)CCCC2=O)c1=O [Compound 127]
60: Plant response rating, Barley ([1]; Postemergence, 250 g ai/ha, scale 0 to 100 (0 no effect, 100 complete control), 13 to 15 days) | Plant response rating, Ducksalad [11, 21] | Plant response rating, Sedge, Umbrella [12, 21]
10: Plant response rating, Morningglory [3, 18]
70: Plant response rating, Foxtail, Giant [7, 16] | Plant response rating, Velvetleaf [9, 18]
75: Plant response rating, Flood, Barnyardgrass [13]
15: Plant response rating, Rice [10, 20]
0: Plant response rating, Barley ([1]; Postemergence, 31 g ai/ha, 0 to 100 scale (0 no effect, 100 complete control)) | Plant response rating, Wheat [5, 16] | Plant response rating, Wheat [5, 17] | Plant response rating, Wheat [5, 18] | Plant response rating, Wheat [5, 19] | Plant response rating, Corn [6, 18] | Plant response rating, Corn [6, 19] | Rice plant response rating [10] | Ducksalad plant response rating [11] | Sedge, Umbrella plant response rating [12] | Barnyardgrass plant response rating [13]
100: Plant response rating, Crabgrass, Large [2, 19] | Plant response rating, Morningglory [3, 17] | Plant response rating, Pigweed [4, 17] | Plant response rating, Pigweed [4, 18] | Plant response rating, Pigweed [4, 19] | Plant response rating, Barnyardgrass [8, 19] | Plant response rating, Velvetleaf [9, 16] | Plant response rating, Velvetleaf [9, 17] | Plant response rating, Velvetleaf [9, 19]
40: Plant response rating, Barnyardgrass [8, 18] | Plant response rating, Barnyardgrass [13, 20]
30: Plant response rating, Ducksalad [11, 20]
65: Plant response rating, Barnyardgrass [13, 21]
50: Plant response rating, Foxtail, Giant [7, 18]
80: Plant response rating, Crabgrass, Large [2, 16] | Plant response rating, Morningglory [3, 19] | Plant response rating, Foxtail, Giant [7, 17] | Plant response rating, Barnyardgrass [8, 16] | Plant response rating, Flood, Ducksalad [11] | Plant response rating, Flood, Sedge, Umbrella [12]
90: Plant response rating, Crabgrass, Large [2, 17] | Plant response rating, Crabgrass, Large [2, 18] | Plant response rating, Morningglory [3, 16] | Plant response rating, Pigweed [4, 16] | Plant response rating, Foxtail, Giant [7, 19] | Plant response rating, Barnyardgrass [8, 17]
35: Plant response rating, Barley [1, 15] | Plant response rating, Flood, Rice [10]
25: Plant response rating, Rice [10, 21]
20: Barley plant response rating (0 to 100 scale) [1, 14] | Plant response rating, Corn [6, 16] | Plant response rating, Corn [6, 17] | Plant response rating, Sedge, Umbrella [12, 20]

Cc1cccc(-n2c(-c3cccc(Cl)c3)ncc(C(=O)C3=C(O)CCCC3=O)c2=O)c1 [Compound 45]
5: Plant response rating, Barley ([1]; Postemergence, 31 g ai/ha, scale 0 to 100 (0 no effect, 100 complete control)) | Plant response rating, Barley ([1]; Postemergence, 62 g ai/ha, scale 0 (no effect) to 100 (complete control), 13 to 15 days) | Plant response rating, Barley ([1]; Postemergence, 125 g ai/ha, visual rating after 13 to 15 days, scale 0 (no effect) to 100 (complete control)) | Barley plant response rating ([1]; Postemergence, 250 g ai/ha, scale 0 to 100)
70: Plant response rating, Sedge, Umbrella [12, 20]
50: Plant response rating, Crabgrass, Large [2, 18] | Foxtail, Giant plant response rating [7, 22]
30: Plant response rating, Flood, Barnyardgrass [13]
60: Crabgrass, Large plant response rating [2, 22] | Plant response rating, Velvetleaf [9, 18]
85: Plant response rating, Flood, Sedge, Umbrella [12]
90: Plant response rating, Crabgrass, Large [2, 17] | Plant response rating, Morningglory [3, 19] | Pigweed plant response rating [4, 22] | Plant response rating, Foxtail, Giant [7, 17] | Barnyardgrass plant response rating [8, 22] | Plant response rating, Flood, Ducksalad [11]
40: Plant response rating, Wheat [5, 17] | Plant response rating, Barnyardgrass [8, 18]
80: Morningglory plant response rating [3, 22] | Plant response rating, Pigweed [4, 18] | Plant response rating, Foxtail, Giant [7, 19] | Plant response rating, Barnyardgrass [8, 19]
0: Wheat plant response rating [5, 22] | Plant response rating, Wheat [5, 18] | Corn plant response rating [6, 22] | Plant response rating, Corn [6, 18] | Plant response rating, Corn [6, 19] | Plant response rating, Foxtail, Giant [7, 18] | Plant response rating, Barnyardgrass [13, 20]
100: Plant response rating, Crabgrass, Large [2, 19] | Plant response rating, Morningglory [3, 17] | Plant response rating, Pigweed [4, 17] | Plant response rating, Pigweed [4, 19] | Plant response rating, Barnyardgrass [8, 17] | Velvetleaf plant response rating [9, 22] | Plant response rating, Velvetleaf [9, 17] | Plant response rating, Velvetleaf [9, 19]
15: Plant response rating, Rice [10, 20]
20: Plant response rating, Morningglory [3, 18] | Plant response rating, Wheat [5, 19] | Plant response rating, Corn [6, 17] | Plant response rating, Flood, Rice [10] | Plant response rating, Ducksalad [11, 20]

O=C1CCCC(O)=C1C(=O)c1cnc(-c2cccs2)n(CC2CCCO2)c1=O (stereo not shown) [Compound 109]
40: Plant response rating, Crabgrass, Large [2, 18] | Plant response rating, Morningglory [3, 18]
75: Plant response rating, Sedge, Umbrella [12, 21]
5: Plant response rating, Barley [1, 15] | Plant response rating, Barley ([1]; Postemergence, 250 g ai/ha, scale 0 to 100 (0 no effect, 100 complete control))
60: Plant response rating, Ducksalad [11, 20] | Plant response rating, Sedge, Umbrella [12, 20]
0: Plant response rating, Barley ([1]; 31 g ai/ha, postemergence, scale 0 to 100, 0 is no effect, 100 is complete control) | Barley plant response rating (0 to 100 scale) [1, 14] | Plant response rating, Wheat [5, 16] | Plant response rating, Wheat [5, 17] | Plant response rating, Wheat [5, 18] | Plant response rating, Wheat [5, 19] | Plant response rating, Corn [6, 16] | Plant response rating, Corn [6, 18] | Plant response rating, Corn [6, 19] | Plant response rating, Foxtail, Giant [7, 18] | Plant response rating, Rice [10, 20] | Rice plant response rating [10] | Plant response rating, Barnyardgrass [13, 20] | Barnyardgrass plant response rating [13]
50: Ducksalad plant response rating [11] | Sedge, Umbrella plant response rating [12]
25: Plant response rating, Flood, Rice [10]
20: Plant response rating, Rice [10, 21] | Plant response rating, Flood, Barnyardgrass [13] | Plant response rating, Barnyardgrass [13, 21]
10: Plant response rating, Barnyardgrass [8, 18]
80: Plant response rating, Barnyardgrass [8, 16] | Plant response rating, Flood, Sedge, Umbrella [12]
90: Plant response rating, Crabgrass, Large [2, 16] | Plant response rating, Crabgrass, Large [2, 19] | Plant response rating, Morningglory [3, 16] | Plant response rating, Pigweed [4, 18] | Plant response rating, Foxtail, Giant [7, 17] | Plant response rating, Barnyardgrass [8, 17]
65: Plant response rating, Ducksalad [11, 21]
30: Plant response rating, Corn [6, 17] | Plant response rating, Foxtail, Giant [7, 19]
100: Plant response rating, Crabgrass, Large [2, 17] | Plant response rating, Morningglory [3, 17] | Plant response rating, Pigweed [4, 16] | Plant response rating, Pigweed [4, 17] | Plant response rating, Pigweed [4, 19] | Plant response rating, Velvetleaf [9, 16] | Plant response rating, Velvetleaf [9, 17] | Plant response rating, Velvetleaf [9, 19] | Plant response rating, Flood, Ducksalad [11]
70: Plant response rating, Morningglory [3, 19] | Plant response rating, Foxtail, Giant [7, 16] | Plant response rating, Barnyardgrass [8, 19] | Plant response rating, Velvetleaf [9, 18]

Reference: patent US8952024B2, “Herbicidal pyrimidone derivatives” (E I du Pont de Nemours and Company, priority 2009, dated 2015)
